Data published in BigSolDB 2.1.

O=C(N[C@H](Cc1ccccc1)C(=O)O)OCC1c2ccccc2-c2ccccc21
solubility (mole fraction)
Conditions | 283.15 K | 288.15 K | 293.15 K | 298.15 K | 303.15 K | 308.15 K | 313.15 K | 318.15 K | 323.15 K
in 2-butanone | 0.00646 | 0.00728 | 0.00803 | 0.00895 | 0.00993 | 0.0112 | 0.0133 | 0.015 | 0.017
in acetone | 0.00728 | 0.00759 | 0.00837 | 0.00931 | 0.0109 | 0.0128 | 0.0146 | 0.0164 | 0.0193
in acetonitrile | 0.000619 | 0.00066 | 0.000723 | 0.00084 | 0.000952 | 0.00117 | 0.00138 | 0.00168 | 0.00203
in ethanol | 0.00161 | 0.00173 | 0.00187 | 0.00205 | 0.0024 | 0.00278 | 0.00324 | 0.004 | 0.00515
in ethyl acetate | 0.00272 | 0.003 | 0.00342 | 0.00379 | 0.00443 | 0.00504 | 0.00571 | 0.00682 | 0.00793
in isopropanol | 0.000943 | 0.00103 | 0.00114 | 0.00126 | 0.00155 | 0.00208 | 0.00263 | 0.00311 | 0.00375
in methanol | 0.00189 | 0.00192 | 0.00199 | 0.00212 | 0.00243 | 0.00285 | 0.00331 | 0.0039 | 0.00513
in methyl acetate | 0.00327 | 0.00358 | 0.00408 | 0.00458 | 0.00537 | 0.00623 | 0.0072 | 0.00884 | 0.0105
in n-butanol | 0.00121 | 0.00136 | 0.00156 | 0.00181 | 0.0022 | 0.00261 | 0.00322 | 0.00389 | 0.00511
in n-butyl acetate | 0.00209 | 0.00227 | 0.00243 | 0.00278 | 0.00305 | 0.00352 | 0.00409 | 0.0046 | 0.00536
in n-propanol | 0.00161 | 0.00168 | 0.00178 | 0.0019 | 0.00217 | 0.00252 | 0.00316 | 0.00365 | 0.00456
in n-propyl acetate | 0.0023 | 0.00244 | 0.00275 | 0.00318 | 0.00354 | 0.00405 | 0.00467 | 0.00534 | 0.00613
